This assay deals with T1, human glycogen phosphorylase a (Homo sapiens, UniProt P06737).
T1 sequence (P06737 2-847 limits assumed): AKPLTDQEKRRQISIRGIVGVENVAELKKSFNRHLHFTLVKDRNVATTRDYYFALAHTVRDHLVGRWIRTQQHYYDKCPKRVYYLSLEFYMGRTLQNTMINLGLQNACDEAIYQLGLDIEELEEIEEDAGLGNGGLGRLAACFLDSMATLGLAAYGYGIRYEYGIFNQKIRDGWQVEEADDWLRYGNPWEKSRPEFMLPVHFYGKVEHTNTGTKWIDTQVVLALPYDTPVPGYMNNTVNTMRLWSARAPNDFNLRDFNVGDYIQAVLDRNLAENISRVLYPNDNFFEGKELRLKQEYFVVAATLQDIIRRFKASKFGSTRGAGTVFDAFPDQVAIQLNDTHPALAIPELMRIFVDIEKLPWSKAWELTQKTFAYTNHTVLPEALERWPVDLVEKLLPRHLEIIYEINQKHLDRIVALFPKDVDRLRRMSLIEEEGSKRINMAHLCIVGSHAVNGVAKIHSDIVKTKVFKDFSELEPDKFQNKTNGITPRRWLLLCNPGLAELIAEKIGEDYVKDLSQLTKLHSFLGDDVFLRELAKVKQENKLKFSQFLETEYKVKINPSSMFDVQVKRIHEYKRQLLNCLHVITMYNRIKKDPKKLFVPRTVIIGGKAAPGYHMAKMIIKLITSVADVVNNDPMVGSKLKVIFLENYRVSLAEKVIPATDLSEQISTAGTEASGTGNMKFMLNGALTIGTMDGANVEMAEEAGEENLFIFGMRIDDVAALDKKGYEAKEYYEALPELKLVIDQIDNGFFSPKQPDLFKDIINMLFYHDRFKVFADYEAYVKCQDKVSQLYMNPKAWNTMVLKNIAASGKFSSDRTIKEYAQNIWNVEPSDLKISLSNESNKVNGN
Put plainly: Glycogen phosphorylase a activity assay (reverse direction, liberation of inorganic phosphate). To be noted: 10 μM test substance; in vitro inhibition of glycogen phosphorylase a. It is filed as biochemical.

Protocol: Glycogen phosphorylase a Activity Assay
All the reactions were carried out as duplicate determinations in microtiter plates with 96 wells (Half Area Plates, Costar No 3696), measuring the change in absorption owing to the formation of the reaction product at the wavelength specified hereinafter in a Multiskan Ascent Elisa Reader (Lab Systems, Finland).
In order to measure the GPa enzymic activity in the reverse direction, the general method of Engers et al. (Engers H D, Shechosky S, Madsen N B, Can J Biochem 1970 July; 48(7):746-754) was used to measure the conversion of glucose 1-phosphate into glycogen and inorganic phosphate, with the following modifications: human glycogen phosphorylase a (for example with 0.76 mg of protein/ml (Aventis Pharma Deutschland GmbH), dissolved in buffer solution E (25 mM β-glycerophosphate, pH 7.0, 1 mM EDTA and 1 mM dithiothreitol) was diluted with buffer T (50 mM Hepes, pH 7.0, 100 mM KCl, 2.5 mM EDTA, 2.5 mM MgCl2.6H2O) and addition of 5 mg/ml glycogen to a concentration of 10 μg of protein/ml. […] The baseline glycogen phosphorylase a activity in the absence of test substance was determined by adding 10 μl of buffer solution T (0.1% DMSO). […] After incubation at 45° C. for 60 minutes, the absorption at 820 nm was measured. […]

As usually defined, the % inhibition is the relative decrease from the control value, in per cent. On to `Cc1ccc(C)n1Nc1cc2c(=O)c(C(=O)O)cn(Cc3ccccc3)c2cc1Cl` [Example 42, 1-Benzyl-7-chloro-6-(2,5-dimethylpyrrol-1-ylamino)-4-oxo-1,4-dihydroquinolone-3-carboxylic acid], for which the “% inhibition at 10 μM” value stood at 101%.
For `CCn1cc(C(=O)OCOC(=O)C(C)(C)C)c(=O)c2cc(Nn3c(C)ccc3C)c(Cl)cc21` [Example 53, 2,2-Dimethylpropionyloxymethyl 7-chloro-6-(2,5-dimethylpyrrol-1-ylamino)-1-ethyl-4-oxo-1,4-dihydroquinolone-3-carboxylate] the value was 93%.

Values taken from patent US7498341B2, “Heterocyclically substituted 7-amino-4-quinolone-3-carboxylic acid derivatives, process for their preparation and their use as medicaments” (Sanofi Aventis Deutschland GmbH, priority 2004, dated 2009).
